Legend:
B16-OVA tumor = test: Vaccination of mice bearing established B16-OVA melanoma, tumor size; format: in vivo, C57BL/6 mice; details: mixed with irradiated B16-OVA
Description: Mice bearing a 7-d subcutaneous B16 melanoma transfected with a gene encoding OVA (B16-OVA) were vaccinated subcutaneously with 1) LL-37 alone; irradiated B16-OVA tumor (iB16-OVA); irradiated B16-OVA tumor mixed with […] CpG-2216 (iB16-OVA+CpG); irradiated B16-OVA tumor with […] LL-37 (iB16-OVA+LL-37). Tumor size was monitored by caliper every second day. Data represent mean of 4 mice per group.
We also performed vaccine studies using the B16 tumor model of melanoma, B16 is a highly aggressive tumor with low immunogenicity. B16 tumor cells can be transfected with ovalbumin (OVA) to provide an immunogen that allows easy tracking of the anti-tumor immune response. 3×10^5 B16-OVA tumor cells were implanted subcutaneously in the flank of C57BL/6 mice and allowed to grow. Seven days later mice were treated with a single subcutaneous injection of LL-37 mixed with irradiated B16-OVA tumor cells. Control injections included LL-37 alone, irradiated B16-OVA alone, or irradiated B16-OVA mixed with the synthetic TLR9 agonist CpG. A detailed method on the generation of these vaccines is provided in D2.1. Tumor size was monitored with a caliper and volumes estimated using the formula […]. The experiment was stopped 10 days after injection because all mice in the control group had died or their tumor had reached 20 mm in their maximal diameter.

[1] = tested on: Thy1.2 positive CD4 T cells; test: Adjuvant activity: expansion of transferred HNT-TCR Tg CD4+ T cells in draining LN; format: in vivo, BALB/c Thy1.1 mice; details: 35 μg s.c. with A20 lysate plus HNT peptide
Description: CD4+ T cells were purified from spleen and LN of HNT-TCR Tg mice (Thy 1.2), labeled with CFSE, and adoptively transferred (1×10^6) into BALB/c Thy1.1 mice. Next day, mice were immunized s.c. with (a) 5×10 ^6 A20 lysate plus HNT peptide and CpG-2216 ([…]); (b) A20 lysate plus HNT peptide and LL-37 ([…]); (c) A20F lysate plus HNT peptide; or (d) left untreated. Four days after immunization draining LN were harvested and Thy 1.2 positive CD4 T cells were measured by flow cytometry.
In another set of experiments, CD4+ T cells were purified from spleen and LN of HNT-TCR Tg mice (Thy 1.2), labeled with CFSE, and adoptively transferred (1×10^6) into BALB/c Thy1.1 mice. Next day, mice were immunized subcutaneously with 5×10^6 A20 lysate plus HNT peptide and CpG-2216 (35 μg), A20 lysate plus HNT peptide and LL-37 (35 μg), A20F lysate plus HNT peptide, or left untreated. Four days after immunization draining LN were harvested and Thy1.2 positive CD4 T cells were measured by flow cytometry.

[2] = tested on: plasmacytoid dendritic cells (pDC); test: IFN-α and cytokine production by purified human pDC (ELISA of supernatants); format: cell-based
Description: PDC from healthy donors were purified from freshly collected buffy coats. Briefly, PBMC were isolated by Ficoll-Hypaque density gradient centrifugation (GE Healthcare, Piscatway, N.J.) followed by positive sorting using anti-BDCA4-conjugated magnetic microbeads (Miltenyi Biotec, Auburn, Calif.). The recovered cells were stained with PE-Cy5-conjugated anti-CD4, APC-conjugated CD11c, and a cocktail of FITC-conjugated anti-CD3, anti-CD14, anti-CD16, anti-CD15, anti-CD20 and anti-CD56 (Lineage-FITC) (BD Pharmingen, San Diego, Calif.). The CD4+CD11c-Lin- (pDC precursors) were isolated by cell sorting. Purity was routinely >99%. PDC (5-10×10^4/well) were cultured in 96-well round-bottom plates in RPMI 1640 (GIBCO, Carlsbad, Calif.) supplemented with 10% FCS (Atlanta Biologicals, Lawrenceville, Ga.). Where indicated, pDC were stimulated with CpGA (1 μM), CpGB (1 μM), R837 (10 ug/ml), IRS (4 uM), non-CpG sequence (4 uM), and different concentrations of LL-37 and of human genomic DNA. To prepare LL-37.DNA complexes, CpGB, huDNA, non-CpG and LL-37 were mixed by inversion and incubated for 30 min at room temperature before being added to the cells.
Supernatants samples were taken after 18-24 h after addition of the stimuli. Human IFN-α was measured using a human IFN-α ELISA kit (PBL Biomedical Laboratories, New Brunswick, N.J.) according to the company's instructions. IL-6 and TNF-α were detected using a kit for human IL6 and TNF-α (R&D Systems), respectively.

B16 tumor = test: Intratumoral injection into established B16 melanoma, tumor size; format: in vivo, C57BL/6 mice
Description: Mice bearing a 7-d subcutaneous B16 melanoma were injected with […] of LL-37 once (single), or repeatedly for 3 days (3×). Control injections were done with PBS. Tumor size was monitored by caliper every second day. Data represent mean of 4 mice per group.
Intratumoral injection of LL-37 elicits potent anti-tumor activity. 3×10^5 B16 tumor cells were inoculated into shaved flanks of C57BL/6 mice. Tumors were allowed to grow for 7 days. On day 7, tumors were either injected with a single dose of LL-37 (100 μg), injected daily for 3 consecutive days with LL-37 or injected with saline as a control. Tumor size was monitored with a caliper and volumes estimated using the formula π/6×length×width^2. The experiment was stopped 12 days after injection because all mice in the control group had died or their tumor had reached 20 mm in their maximal diameter. […] Thus, intratumoral LL-37 injection induces potent anti-tumor activity.

Sequence: LLGDFFRKSKEKIGKEFKRIVQRIKDFLRNLVPRTES [LL-37]
- Adjuvant potency compared to CpGs (CpG-2216) (B16-OVA tumor): more potent than CpGs
- Induction of T cell mediated immunity (adjuvant activity) [1]: potent adjuvant activity
- IFN-α in pDC stimulated with non-CpG-ODN sequences plus LL-37 [2]: induce significant levels of IFN-α
- IFN-α production by pDC stimulated with nucleic acid alone or combined with LL-37, as labelled [2]: converts genomic DNA of human and bacterial origin into potent IFN-α inducers
- IL-6 production by pDC ([2]; LL-37 10 μM): only induced IFN-α but not IL-6 or TNF-α
- TNF-α production by pDC ([2]; LL-37 10 μM): only induced IFN-α but not IL-6 or TNF-α
- IFN-α by pDC relative to phosphothiorate CpG-B alone ([2]; LL-37 added to phosphodiesteric or phosphothiorate CpG-B): approximately 10 fold
- IFN-α produced by pDC (mean) ([2]; pDC cultured with LL-37, 10% serum in culture medium, n=10): 950 pg/ml
- IFN-α produced by pDC (range) ([2]; pDC cultured with LL-37, n=10): 200-4000 pg/ml
- Growth of established B16 tumor, single intratumoral injection (B16 tumor; 100 μg on day 7): significantly delayed the growth of established B16 tumor
- Anti-tumor response, repeated intratumoral injection (B16 tumor; three consecutive days): showed a trend towards a better anti-tumor response
